{"source": "patent US20090053697A1", "about": "“Pharmacological Applications of Mitochondrial DNA Assays” (priority 2001, published 2009)", "experiment": "Random venous lactic acid measurement", "type": "in vivo, human", "conditions": "for months after resuming therapy; normal range 0.5-2.1 mmol/L", "from_the_text": "Venous specimens for lactic acid determination were collected in sodium fluoride/potassium oxalate tubes, with normal tourniquet and no specific patient instruction other than the avoidance of first clenching or hand pumping. […]", "data": [{"smiles": "Cc1cn([C@H]2C[C@H](N=[N+]=[N-])[C@@H](CO)O2)c(=O)[nH]c1=O", "note": "[zidovudine]", "values": [{"measurement": "venous lactate levels", "result": "remained within the normal range"}]}]}
